Laboratory results reported in US20260285888A1, “HETEROCYCLIC COMPOUND AND USE THEREOF” (OTSUKA PHARMACEUTICAL CO., LTD., priority 2023, published 2026).

Assay: Study for confirmation of conversion to brexpiprazole in a buffer (stability of the evaluation compounds)
Format: physicochemical
Details: for Concentration of brexpiprazole formed / Concentration of evaluation compound decreased: in buffer, average of duplicate; for Concentration of brexpiprazole formed: 60-minute reaction sample; for Concentration of evaluation compound decreased: decrease in 60-minute vs 0-minute reaction sample; for stability in the buffer / conversion to brexpiprazole (in words): Tris-hydrochloric acid buffer pH 7.5, 37° C., 60 minutes, 1 μmol/L
Procedure: The conversion from the evaluation compounds to brexpiprazole in a buffer (i.e., the stability of the evaluation compounds) was evaluated.
The Example 1 compound was dissolved in acetonitrile/water (1:1, v/v) to 10 mmol/L and further diluted with acetonitrile/water (1:1, v/v) to 100 μmol/L for use.
The other Example compounds and the Reference Example 5 compound to Reference Example 7 compound were each dissolved in DMSO to 10 mmol/L and further diluted with acetonitrile to 100 μmol/L for use, except for the following compounds.
The compounds of Examples 52, 95, 96, 117, and 130 (EX 52, EX 95, EX 96, EX 117, and EX 130) were dissolved in acetonitrile/water (8:2, v/v) to 10 mmol/L and further diluted with acetonitrile to 100 μmol/L for use.
The compound of Example 97 (EX 97) was dissolved in acetonitrile/water (8:2, v/v) to 10 mmol/L and further diluted with acetonitrile/water (8:2, v/v) to 100 μmol/L for use.
The compounds of Examples 15 and 116 (EX 15 and EX 116) were dissolved in DMSO to 1 mmol/L and further diluted with acetonitrile to 100 μmol/L for use.
The reaction was conducted by preparing each reaction solution such that the final concentration of each component was as follows. The test was conducted in duplicate.
For the compounds of Examples 1 to 8, 10 to 19, 26 to 27, 37, 50, 87 to 89, 91, 116, 121, 123, 150, and 151 (EX 1 to EX 8, EX 10 to EX 19, EX 26 to EX 27, EX 37, EX 50, EX 87 to EX 89, EX 91, EX 116, EX 121, EX 123, EX 150, and EX 151), and the compounds of Reference Examples 5 to 7 (REX 5 to REX 7), the reaction solution without the evaluation compound (198 μl) was pre-incubated at 37° C. for 3 minutes, and then each of the evaluation compound solutions (2 μl) was added and stirred; thereafter, the reaction was started at 37° C. At 0 minutes or 60 minutes after the start of the reaction, the reaction was stopped by adding and stirring a reaction stop solution (1000 μl) composed of acetonitrile/isopropanol (4:1, v/v) containing internal standard substances. However, the 0-minute reaction sample (198 μl) was prepared by adding the evaluation compound (2 μl) after adding the reaction stop solution (1000 μl). The samples after stopping the reaction were used as the measurement samples. Calibration curve samples with the same composition were prepared (final concentrations of the evaluation compounds and brexpiprazole: 0.01, 0.1, and 1 μmol/L, with the proviso that for the evaluation compounds only, the 0-minute reaction samples were also used as calibration curve samples for 1 μmol/L).
For the compounds of Examples 24 to 25, 28 to 29, 32 to 36, 40 to 49, 51 to 60, 62 to 64, 66 to 77, 80 to 86, 90, 92 to 111, 113, 115, 117 to 120, 122, 124 to 130, 132 to 147, and 152 to 160 (EX 24 to EX 25, EX 28 to EX 29, EX 32 to EX 36, EX 40 to EX 49, EX 51 to EX 60, EX 62 to EX 64, EX 66 to EX 77, EX 80 to EX 86, EX 90, EX 92 to EX 111, EX 113, EX 115, EX 117 to EX 120, EX 122, EX 124 to EX 130, EX 132 to EX 147, and EX 152 to EX 160), the reaction solution without the evaluation compound (148.5 μl) was pre-incubated at 37° C. for 3 minutes, and then each of the evaluation compound solutions (1.5 μl) was added and stirred; thereafter, the reaction was started at 37° C. At 0 minutes or 60 minutes after the start of the reaction, the reaction was stopped by adding and stirring a reaction stop solution (600 μl) composed of acetonitrile/isopropanol (4:1, v/v) containing internal standard substances. However, the 0-minute reaction sample (148.5 μl) was prepared by adding the evaluation compound (1.5 μl) after adding the reaction stop solution (600 μl). The samples after stopping the reaction were used as the measurement samples. Calibration curve samples with the same composition were prepared (final concentrations of the evaluation compounds and brexpiprazole: 0.01, 0.1, and 1 μmol/L, with the proviso that for the evaluation compounds only, the 0-minute reaction samples were also used as calibration curve samples for 1 μmol/L). […]

Structure (SMILES)	Concentration of brexpiprazole formed	Concentration of evaluation compound decreased	stability in the buffer / conversion to brexpiprazole (in words)
COP(=O)([O-])OC[N+]1(CCCCOc2ccc3ccc(=O)[nH]c3c2)CCN(c2cccc3sccc23)CC1 [EX 87, (4-(benzo[b]thiophen-4-yl)-1-(4-((2-oxo-1,2-dihydroquinolin-7-yl)oxy)butyl)piperazin-1-ium-1-yl)methyl methyl phosphate]	0 nM	0 nM	
COc1ccc(C(=O)OCCCCCCOP(=O)([O-])OC[N+]2(CCCCOc3ccc4ccc(=O)[nH]c4c3)CCN(c3cccc4sccc34)CC2)cc1 [EX 58, (4-(benzo[b]thiophen-4-yl)-1-(4-((2-oxo-1,2-dihydroquinolin-7-yl)oxy)butyl)piperazin-1-ium-1-yl)methyl (6-((4-methoxybenzoyl)oxy)hexyl) phosphate]	0 nM	40 nM	
CC(C)OP(=O)([O-])OC[N+]1(CCCCOc2ccc3ccc(=O)[nH]c3c2)CCN(c2cccc3sccc23)CC1 [EX 5, (4-(benzo[b]thiophen-4-yl)-1-(4-((2-oxo-1,2-dihydroquinolin-7-yl)oxy)butyl)piperazin-1-ium-1-yl)methyl isopropyl phosphate]	0 nM	70 nM	
O=c1ccc2ccc(OCCCC[N+]3(COP(=O)([O-])OCC(F)F)CCN(c4cccc5sccc45)CC3)cc2[nH]1 [EX 115, (4-(benzo[b]thiophen-4-yl)-1-(4-(2-oxo-1,2-dihydroquinolin-7-yl)oxy)butyl)piperazin-1-ium-1-yl)methyl (2,2-difluoroethyl) phosphate]	0 nM	50 nM	
O=c1ccc2ccc(OCCCC[N+]3(COP(=O)([O-])OC[C@H]4CC[C@H](CO)CC4)CCN(c4cccc5sccc45)CC3)cc2[nH]1 [EX 86, (4-(benzo[b]thiophen-4-yl)-1-(4-((2-oxo-1,2-dihydroquinolin-7-yl)oxy)butyl)piperazin-1-ium-1-yl)methyl (((1r,4r)-4-(hydroxymethyl)cyclohexyl)methyl) phosphate]	0 nM	50 nM	
CC(C)(C)OP(=O)([O-])OC[N+]1(CCCCOc2ccc3ccc(=O)[nH]c3c2)CCN(c2cccc3sccc23)CC1 [EX 4, (4-(benzo[b]thiophen-4-yl)-1-(4-((2-oxo-1,2-dihydroquinolin-7-yl)oxy)butyl)piperazin-1-ium-1-yl)methyl tert-butyl phosphate]	0 nM	20 nM	
CC(C)(C)OC(=O)CCCC(=O)OCOP(=O)([O-])OC[N+]1(CCCCOc2ccc3ccc(=O)[nH]c3c2)CCN(c2cccc3sccc23)CC1 [EX 69, (4-(benzo[b]thiophen-4-yl)-1-(4-((2-oxo-1,2-dihydroquinolin-7-yl)oxy)butyl)piperazin-1-ium-1-yl)methyl (((5-(tert-butoxy)-5-oxopentanoyl)oxy)methyl) phosphate]	0 nM	-10 nM	
CC(C)(C)C(=O)OCOP(=O)([O-])OC[N+]1(CCCCOc2ccc3ccc(=O)[nH]c3c2)CCN(c2cccc3sccc23)CC1 [EX 25, (4-(benzo[b]thiophen-4-yl)-1-(4-((2-oxo-1,2-dihydroquinolin-7-yl)oxy)butyl)piperazin-1-ium-1-yl)methyl ((pivaloyloxy)methyl) phosphate]	0 nM	-10 nM	
CCOC(=O)CCCC(=O)OCOP(=O)([O-])OC[N+]1(CCCCOc2ccc3ccc(=O)[nH]c3c2)CCN(c2cccc3sccc23)CC1 [EX 68, (4-(benzo[b]thiophen-4-yl)-1-(4-((2-oxo-1,2-dihydroquinolin-7-yl)oxy)butylpiperazin-1-ium-1-yl)methyl (((5-ethoxy-5-oxopentanoyl)oxy)methyl) phosphate]	0 nM	90 nM	
COc1ccc(COC(=O)CC(C)(C)CC(=O)OCOP(=O)([O-])OC[N+]2(CCCCOc3ccc4ccc(=O)[nH]c4c3)CCN(c3cccc4sccc34)CC2)cc1 [EX 72, (4-(benzo[b]thiophen-4-yl)-1-(4-((2-oxo-1,2-dihydroquinolin-7-yl)oxy)butyl)piperazin-1-ium-1-yl)methyl (((5-((4-methoxybenzyl)oxy)-3,3-dimethyl-5-oxopentanoyl)oxy)methyl) phosphate]	0 nM	150 nM	
CCC(C)(C)C(=O)OCOP(=O)([O-])OC[N+]1(CCCCOc2ccc3ccc(=O)[nH]c3c2)CCN(c2cccc3sccc23)CC1 [EX 122, (4-(benzo[b]thiophen-4-yl)-1-(4-((2-oxo-1,2-dihydroquinolin-7-yl)oxy)butyl)piperazin-1-ium-1-yl)methyl (((2,2-dimethylbutanoyl)oxy)methyl) phosphate]	0 nM	50 nM	

The next lines start with the values.

Concentration of brexpiprazole formed	Concentration of evaluation compound decreased	stability in the buffer / conversion to brexpiprazole (in words)	Structure (SMILES)
0 nM	90 nM		CCCC(=O)OCOP(=O)([O-])OC[N+]1(CCCCOc2ccc3ccc(=O)[nH]c3c2)CCN(c2cccc3sccc23)CC1 [EX 121]
240 nM	270 nM		CCCCCCOC(=O)OC[N+]1(CCCCOc2ccc3ccc(=O)[nH]c3c2)CCN(c2cccc3sccc23)CC1.[I-] [REX 7, 4-(Benzo[b]thiophen-4-yl)-1-((((hexyloxy)carbonyl)oxy)methyl)-1-(4-((2-oxo-1,2-dihydroquinolin-7-yl)oxy)butyl)piperazin-1-ium iodide, reference compound]
0 nM	-70 nM		CCCCOP(=O)([O-])OC[N+]1(CCCCOc2ccc3ccc(=O)[nH]c3c2)CCN(c2cccc3sccc23)CC1 [EX 89, (4-(benzo[b]thiophen-4-yl)-1-(4-((2-oxo-1,2-dihydroquinolin-7-yl)oxy)butyl)piperazin-1-ium-1-yl)methyl butyl phosphate]
		clearly degraded to brexpiprazole	CCCCCCOC(=O)OC[N+]1(CCCCOc2ccc3ccc(=O)[nH]c3c2)CCN(c2cccc3sccc23)CC1 [Reference Example 7, reference compound]
		clearly degraded to brexpiprazole	CCC(=O)OC[N+]1(CCCCOc2ccc3ccc(=O)[nH]c3c2)CCN(c2cccc3sccc23)CC1 [Reference Example 5, reference compound]
		clearly degraded to brexpiprazole	CCCCCC(=O)OC[N+]1(CCCCOc2ccc3ccc(=O)[nH]c3c2)CCN(c2cccc3sccc23)CC1 [Reference Example 6, reference compound]
0 nM	0 nM		CCCCCCCC(=O)OCOP(=O)([O-])OC[N+]1(CCCCOc2ccc3ccc(=O)[nH]c3c2)CCN(c2cccc3sccc23)CC1 [EX 27, (4-(benzo[b]thiophen-4-yl)-1-(4-((2-oxo-1,2-dihydroquinolin-7-yl)oxy)butyl)piperazin-1-ium-1-yl)methyl ((octanoyloxy)methyl) phosphate]
